# Compound: CC1=CC(=CC=C1)NC2=NC(=CS2)C3=CC=NC=C3
# Assay: relative viability (nuclei count vs DMSO), 5 days (fraction); higher = more cells survive
# Conditions: 8 µM
# Outline: (§1)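 Hoechst staining, done together with fixation and permeabilisation, marked nuclei for 4× imaging and MetaXpress counting. This followed 5 days without medium change after lung cancer cell lines, kept overnight at 37 °C in 1536-well plates, were pinned with five library-drug doses (not always all listed) spaced by √10 on vehicle-anchored plates. Viability is the ratio of treated-well to vehicle-well nuclei, expressed as a median across plates. Plates passed only at control CV below 25% with at least one doubling.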
row,Cell Line,relative viability
1,ABC-1,0.41
2,SK-MES-1,0.861
3,NCI-H661,0.99
4,RERF-LC-KJ,0.714

# Compound: Cc1ccc(NC(=O)c2ccc(CN3CCN(C)CC3)cc2)cc1Nc1nc(-c2cccnc2)cs1 [Masitinib]
# Assay: as above
# Conditions: 0.01 µM
# Outline: as §1
row,Cell Line,relative viability
1,201T,0.79
2,NCI-H1975,0.983
3,HCC-827,0.868
4,NCI-H1299,1.06
5,NCI-H2347,0.88
6,NCI-H1355,0.813
7,NCI-H650,0.998
8,CAL-12T,0.922
9,NCI-H1666,0.779
10,EPLC-272H,0.887
11,NCI-H23,0.888
12,NCI-H1437,0.838
13,NCI-H322M,0.934
14,NCI-H1563,0.9
15,NCI-H1792,0.76
16,NCI-H2085,0.891
17,HCC-15,0.774
18,PC-3 [JPC-3],0.95
19,EKVX,0.627
20,LC-2-ad,0.806
21,NCI-H1650,0.798
22,NCI-H2170,0.843
23,NCI-H1993,0.91
24,SK-LU-1,1.05
25,ABC-1,0.857
26,SK-MES-1,0.923
27,NCI-H661,0.9
28,RERF-LC-KJ,0.922

# Same assay, conditions: 0.03162 µM
row,Cell Line,relative viability
1,201T,1.03
2,NCI-H1975,0.923
3,HCC-827,1.03
4,NCI-H1299,1.01
5,NCI-H2347,0.911
6,NCI-H1355,0.723
7,NCI-H650,0.963
8,CAL-12T,0.953
9,NCI-H1666,0.944
10,EPLC-272H,0.788
11,NCI-H23,0.926
12,NCI-H1915,0.999
13,NCI-H1437,0.93
14,NCI-H322M,0.948
15,NCI-H1563,0.975
16,NCI-H1792,0.76
17,NCI-H2085,0.983
18,HCC-15,0.983
19,NCI-H1944,0.972
20,PC-3 [JPC-3],0.951
21,EKVX,0.86
22,LC-2-ad,1.01
23,NCI-H1650,0.979
24,NCI-H2170,0.933
25,NCI-H1993,0.867
26,SK-LU-1,1.05
27,ABC-1,0.902
28,SK-MES-1,0.945
29,NCI-H661,0.977
30,RERF-LC-KJ,0.943

# Same assay, conditions: 0.1 µM
row,Cell Line,relative viability
1,201T,0.825
2,NCI-H1975,1.06
3,HCC-827,0.888
4,NCI-H1299,1.05
5,NCI-H2347,1
6,NCI-H1355,0.851
7,NCI-H650,1.09
8,CAL-12T,0.99
9,NCI-H1666,0.939
10,EPLC-272H,0.962
11,NCI-H23,1.03
12,NCI-H1437,1.06
13,NCI-H322M,0.933
14,NCI-H1563,0.983
15,NCI-H1792,1.04
16,NCI-H2085,1.01
17,HCC-15,0.836
18,PC-3 [JPC-3],1.04
19,EKVX,0.805
20,LC-2-ad,0.951
21,NCI-H1650,0.871
22,NCI-H2170,0.983
23,NCI-H1993,0.986
24,SK-LU-1,1.13
25,ABC-1,1.08
26,SK-MES-1,1.04
27,NCI-H661,0.986
28,RERF-LC-KJ,1.03

# Same assay, conditions: 0.3162 µM
row,Cell Line,relative viability
1,201T,0.783
2,NCI-H1975,0.676
3,HCC-827,0.959
4,NCI-H1299,1.04
5,NCI-H2347,1.02
6,NCI-H1355,0.762
7,NCI-H650,1.04
8,CAL-12T,0.97
9,NCI-H1666,0.846
10,EPLC-272H,0.866
11,NCI-H23,0.933
12,NCI-H1915,1
13,NCI-H1437,0.986
14,NCI-H322M,0.897
15,NCI-H1563,0.931
16,NCI-H1792,0.814
17,NCI-H2085,1.05
18,HCC-15,0.962
19,NCI-H1944,0.799
20,PC-3 [JPC-3],1.04
21,EKVX,0.717
22,LC-2-ad,0.966
23,NCI-H1650,0.885
24,NCI-H2170,1.04
25,NCI-H1993,0.826
26,SK-LU-1,1.24
27,ABC-1,0.853
28,SK-MES-1,0.881
29,NCI-H661,0.967
30,RERF-LC-KJ,0.963

# Same assay, conditions: 1 µM
row,Cell Line,relative viability
1,201T,0.976
2,NCI-H1975,0.852
3,HCC-827,1.01
4,NCI-H1299,0.984
5,NCI-H2347,0.966
6,NCI-H1355,0.966
7,NCI-H650,0.899
8,CAL-12T,0.967
9,NCI-H1666,0.961
10,EPLC-272H,0.815
11,NCI-H23,0.916
12,NCI-H1915,0.977
13,NCI-H1437,0.85
14,NCI-H322M,0.848
15,NCI-H1563,0.937
16,NCI-H1792,0.735
17,NCI-H2085,0.958
18,HCC-15,0.959
19,NCI-H1944,0.955
20,PC-3 [JPC-3],1.02
21,EKVX,0.927
22,LC-2-ad,0.944
23,NCI-H1650,0.89
24,NCI-H2170,0.991
25,NCI-H1993,0.917
26,SK-LU-1,1.02
27,ABC-1,0.93
